# Measurements taken from patent US20130217652A1, “SULFINYLBENZYL AND THIOBENZYL DERIVATIVES AS SPHINGOSINE 1-PHOSPHATE (S1P) RECEPTOR MODULATORS” (ALLERGAN, INC., priority 2012, published 2013).
# Target: T1, human S1P1 receptor (Homo sapiens, UniProt P21453)
# T1 construct: expressed in transfected cells; membranes used
# Experiment: GTP γ35S binding assay for S1P1 activity
# Assay type: biochemical
# Conditions: membranes of cells stably expressing the S1P1 receptor, test compounds 0.08 to 5,000 nM, 30 min at 25° C.
# Procedure: Compounds were synthesized and tested for S1P1 activity using the GTP γ^35S binding assay. These compounds may be assessed for their ability to activate or block activation of the human S1P1 receptor in cells stably expressing the S1P1 receptor.
# GTP γ^35S binding was measured in the medium containing (mM) HEPES 25, pH 7.4, MgCl2 10, NaCl 100, dithitothreitol 0.5, digitonin 0.003%, 0.2 nM GTP γ^35S, and 5 μg membrane protein in a volume of 150 μl. Test compounds were included in the concentration range from 0.08 to 5,000 nM unless indicated otherwise. Membranes were incubated with 100 μM 5′-adenylylimmidodiphosphate for 30 min, and subsequently with 10 μM GDP for 10 min on ice. Drug solutions and membrane were mixed, and then reactions were initiated by adding GTP γ^35S and continued for 30 min at 25° C. Reaction mixtures were filtered over Whatman GF/B filters under vacuum, and washed three times with 3 mL of ice-cold buffer (HEPES 25, pH 7.4, MgCl2 10 and NaCl 100). Filters were dried and mixed with scintillant, and counted for ^35S activity using a β-counter. Agonist-induced GTP γ^35S binding was obtained by subtracting that in the absence of agonist. Binding data were analyzed using a non-linear regression method. In case of antagonist assay, the reaction mixture contained 10 nM S1P in the presence of test antagonist at concentrations ranging from 0.08 to 5000 nM. […] Activity potency: S1P1 receptor from GTP γ^35S: nM, (EC50),
# T1 sequence (P21453 whole entry): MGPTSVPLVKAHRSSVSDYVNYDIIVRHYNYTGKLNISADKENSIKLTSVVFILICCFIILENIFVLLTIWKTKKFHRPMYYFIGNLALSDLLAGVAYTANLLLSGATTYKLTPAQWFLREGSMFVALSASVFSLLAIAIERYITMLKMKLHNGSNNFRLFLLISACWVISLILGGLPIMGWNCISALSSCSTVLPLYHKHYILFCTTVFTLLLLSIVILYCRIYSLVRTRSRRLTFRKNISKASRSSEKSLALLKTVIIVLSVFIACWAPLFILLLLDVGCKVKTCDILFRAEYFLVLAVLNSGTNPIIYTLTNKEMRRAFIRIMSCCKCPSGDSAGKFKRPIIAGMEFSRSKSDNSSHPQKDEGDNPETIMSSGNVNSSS
row,EC50,SMILES
1,81.7 nM,"Cc1ccc(CC(CCC[S+]([O-])c2ccc(CNCCC(=O)O)cc2)c2cccc(Cl)c2)cc1C (centres unmarked) [Compound 3, 3-[(4-{[4-(3-chlorophenyl)-5-(3,4-dimethylphenyl)pentyl]sulfinyl}benzyl)amino]propanoic acid]"
2,631 nM,"Cc1ccc(CC(CCCC[S+]([O-])c2ccc(CNCCC(=O)O)cc2)c2cccc(Cl)c2)cc1C (centres unmarked) [Compound 2, 3-[(4-{[5-(3-chlorophenyl)-6-(3,4-dimethylphenyl)hexyl]sulfinyl}benzyl)amino]propanoic acid]"
3,159 nM,"Cc1ccc(CC(CCCCSc2ccc(CNCCC(=O)O)cc2)c2cccc(Cl)c2)cc1C (centres unmarked) [Compound 1, 3-[(4-{[5-(3-chlorophenyl)-6-(3,4-dimethylphenyl)hexyl]thio}benzyl)amino]propanoic acid]"

# The next lines start with the molecule.
row,SMILES,EC50
1,"Cc1ccc(CC(CCCSc2ccc(CNCCCP(=O)(O)O)cc2)c2cccc(Cl)c2)cc1C (centres unmarked) [Compound 6, {3-[(4-{[4-(3-chlorophenyl)-5-(3,4-dimethylphenyl)pentyl]thio}benzyl)amino]propyl}phosphonic acid]",0.76 nM
2,"Cc1ccc(CC(CCCSc2ccc(CNCCCP(=O)(O)O)cc2)c2cc(F)cc(F)c2)cc1C (centres unmarked) [Compound 5, {3-[(4-{[4-(3,5-difluorophenyl)-5-(3,4-dimethylphenyl)pentyl]thio}benzyl)amino]propyl}phosphonic acid]",2.65 nM
